Active and inactive are the calls of the source. The rule behind the calls is not given here.

For data set [1], the system named is HCT-116. The experiment in a line: Induction of cell cycle arrest in human HCT-116 cells assessed as accumulation at S phase at 0.34 uM after 24 hrs by propidium iodide-staining based flow cytometry (reference value: 17.17 +/- 0.18%). The format is functional.
Data set [2] has as its system HCT-116. Kind of data set: Induction of cell cycle arrest in human HCT-116 cells assessed as accumulation at G2/M phase at 0.34 uM after 24 hrs by propidium iodide-staining based flow cytometry (reference value: 23.25 +/- 1.38%). In kind it is functional.
Data set [3] deals with HCT-116. The experiment in a line: Induction of cell cycle arrest in human HCT-116 cells assessed as accumulation at G0/G1 phase at 0.34 uM after 24 hrs by propidium iodide-staining based flow cytometry (reference value: 58.01 +/- 1.77%). The format is functional.
For data set [4], the system named is HCT-116. The experiment in a line: Cytotoxicity against human HCT-116 cells assessed as reduction in cell viability incubated for 72 hrs by MTS assay. In kind it is functional, cell-based. The settings on record: HCT-116, 72 h.
Another data set deals with A549. Kind of data set: Cytotoxicity against human A549 cells assessed as reduction in cell viability incubated for 72 hrs by MTS assay. The format is functional, cell-based. The settings on record: A549, 72 h.
The next data set concerns MCF7. Kind of data set: Cytotoxicity against human MCF7 cells assessed as reduction in cell viability incubated for 72 hrs by MTS assay. The settings on record: MCF7, 72 h. The format is functional, cell-based.
For another data set, the system named is U2OS. Kind of data set: Cytotoxicity against human U2OS cells assessed as reduction in cell viability incubated for 72 hrs by MTS assay. The format is functional, cell-based.
The next data set relates to A-375. Kind of data set: Cytotoxicity against human A-375 cells assessed as reduction in cell viability incubated for 72 hrs by MTS assay. In kind it is functional, cell-based. The settings on record: A-375, 72 h.
The nature of data set [5]: Cytotoxicity against human MCF-10A cells assessed as reduction in cell viability incubated for 72 hrs by MTS assay. The format is toxicity, cell-based.
A further data set has as its system MGC-803. The experiment in a line: Cytotoxicity against human MGC-803 cells assessed as reduction in cell viability incubated for 72 hrs by MTS assay. In kind it is functional, cell-based. The settings on record: MGC-803, 72 h.
Another data set relates to MDA-MB-231. The experiment in a line: Cytotoxicity against human MDA-MB-231 cells assessed as reduction in cell viability incubated for 72 hrs by MTS assay. The format is functional, cell-based. The settings on record: MDA-MB-231, 72 h.
Another data set relates to HeLa. The experiment in a line: Cytotoxicity against human HeLa cells assessed as reduction in cell viability incubated for 72 hrs by MTS assay. The format is functional, cell-based.
In the next data set the test system is HepG2. Kind of data set: Cytotoxicity against human HepG2 cells assessed as reduction in cell viability incubated for 72 hrs by MTS assay. The format is functional, cell-based. The settings on record: HepG2, 72 h.
Data set [6] relates to HCT-116. Kind of data set: Induction of autophagy in human HCT-116 cells assessed as increase in LC-3B puncta level measured after 12 to 24 hrs by immunofluorescence analysis. The format is functional, cell-based. The settings on record: time 12-24 hrs.
For data set [7], the system named is HCT-116. Kind of data set: Induction of autophagy in human HCT-116 cells assessed as increase in p62 protein level measured after 12 to 24 hrs by Western blot analysis. The settings on record: time 12-24 hrs. In kind it is functional, cell-based.
Data set [8] concerns Bacteria. The experiment in a line: Binding affinity to bacteria produced His tagged-P62 at 10 uM incubated for 12 hrs by pull-down based immunoblot assay. The settings on record: filed as activator.
In data set [9] the target is T1, E3 ubiquitin-protein ligase RNF168 (Homo sapiens, UniProt Q8IYW5). The experiment in a line: Binding affinity to RNF168 (unknown origin) by MST assay.
T1 sequence (Q8IYW5 whole entry): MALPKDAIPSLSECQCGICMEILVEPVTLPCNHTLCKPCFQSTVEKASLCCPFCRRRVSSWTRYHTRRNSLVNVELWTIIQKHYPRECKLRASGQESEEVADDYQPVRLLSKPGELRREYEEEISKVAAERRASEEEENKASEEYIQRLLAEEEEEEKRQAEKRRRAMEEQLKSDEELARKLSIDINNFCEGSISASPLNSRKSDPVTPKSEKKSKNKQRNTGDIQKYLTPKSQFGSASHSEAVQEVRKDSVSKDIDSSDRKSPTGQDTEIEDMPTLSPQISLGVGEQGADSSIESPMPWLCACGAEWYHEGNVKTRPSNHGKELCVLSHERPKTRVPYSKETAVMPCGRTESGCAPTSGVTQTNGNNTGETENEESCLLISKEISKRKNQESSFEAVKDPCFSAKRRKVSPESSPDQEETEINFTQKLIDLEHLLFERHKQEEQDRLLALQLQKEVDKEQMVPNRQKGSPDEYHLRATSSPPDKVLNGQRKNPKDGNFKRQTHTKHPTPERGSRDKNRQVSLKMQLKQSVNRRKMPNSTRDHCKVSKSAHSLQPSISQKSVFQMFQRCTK
The target in data set [10] is T1, E3 ubiquitin-protein ligase RNF168. The experiment in a line: Binding affinity to RNF168 in human HCT-116 cells lysates at 10 uM by pull-down based immunoblot assay. In kind it is subcellular. The settings on record: filed as activator.
The target in a further data set is Sequestosome-1 (Homo sapiens, UniProt Q13501). The experiment in a line: Binding affinity to P62 in human HCT-116 cells lysates at 10 uM incubated for 12 hrs by pull-down based immunoblot assay. The format is subcellular. The settings on record: filed as activator.
Sequestosome-1, sequence (Q13501 whole entry): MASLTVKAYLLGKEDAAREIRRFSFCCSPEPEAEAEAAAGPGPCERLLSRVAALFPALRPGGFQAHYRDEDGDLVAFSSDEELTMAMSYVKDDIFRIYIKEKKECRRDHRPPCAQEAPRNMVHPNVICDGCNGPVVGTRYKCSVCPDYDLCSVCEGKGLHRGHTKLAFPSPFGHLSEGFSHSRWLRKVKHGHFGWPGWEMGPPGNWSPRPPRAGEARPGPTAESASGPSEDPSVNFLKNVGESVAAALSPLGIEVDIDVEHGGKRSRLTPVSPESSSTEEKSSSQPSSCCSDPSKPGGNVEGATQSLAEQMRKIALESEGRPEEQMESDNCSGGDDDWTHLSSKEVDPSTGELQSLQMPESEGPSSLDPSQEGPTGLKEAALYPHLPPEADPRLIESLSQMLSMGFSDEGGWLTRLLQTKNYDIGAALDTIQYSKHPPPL
Data set [11] concerns Bacteria. Kind of data set: Binding affinity to bacteria produced GST-tagged RNF168 at 10 uM by pull-down based immunoblot assay. The settings on record: filed as activator.
Data set [12] relates to HCT-116. Kind of data set: Induction of apoptosis in human HCT-116 cells at 5 to 10 uM measured after 24 hrs by annexinV-FITC/propidium iodide staining based flow cytometry analysis. The format is functional, cell-based. The settings on record: dose 5-10 µM.
Data set [13] deals with HCT-116. The experiment in a line: Induction of cell cycle arrest in human HCT-116 cells assessed as accumulation at G2/M phase at IC50 concentration after 24 hrs by propidium iodide-staining based flow cytometry (reference value: 23.25 +/- 1.38%). The format is functional.
Data set [14] has as its system HCT-116. Kind of data set: Induction of cell cycle arrest in human HCT-116 cells assessed as accumulation at G0/G1 phase at IC50 concentration after 24 hrs by propidium iodide-staining based flow cytometry (reference value: 58.01 +/- 1.77%). The format is functional.
Data set [15] has as its system HCT-116. The experiment in a line: Induction of cell cycle arrest in human HCT-116 cells assessed as accumulation at S phase at IC50 concentration after 24 hrs by propidium iodide-staining based flow cytometry (reference value: 17.17 +/- 0.18%). In kind it is functional.

With `COC(=O)Nc1nc2cc(C(=O)c3cccs3)ccc2[nH]1` [NOCODAZOLE], the results for the Activity in the data set on HCT-116 [1], in the data set on HCT-116 [2] and with HCT-116 [3] were 7.11%, 93.17% and 2.92%, respectively.

With `COc1ccc(OC)c(-n2cc(-c3ccc4nc(N)nc(N)c4c3)nn2)c1`, the IC50 with HCT-116 [4] was found to be 3.09 µM; with A549, 8.36 µM.

For `Cc1nc2ccc(CN(C)c3ccc(C(=O)N[C@@H](CCC(=O)O)C(=O)O)s3)cc2c(=O)[nH]1` [RALTITREXED], the IC50 was 10.9 µM in the data set on MCF7; more than 20 µM in the data set on U2OS; 4.68 µM in the data set with A-375; 9.52 µM in the data set with MGC-803; more than 20 µM with MDA-MB-231; 0.076 µM in the data set on HCT-116 [4]. Moreover, the half-inhibitory concentration (IC50) in the data set with A549 was determined as 0.81 µM; in the data set on HeLa it was 5.51 µM; in the data set on HepG2, 9.63 µM. In addition, the concentration for half-maximal inhibition (IC50) at 72 h in data set [5] was more than 20 µM.

In the case of `Nc1nc(N)c2cc(-c3cn(-c4ccc(O)cc4)nn3)ccc2n1`, the half-maximal inhibitory concentration (IC50) in the data set with HCT-116 [4] and in the data set on A549 was more than 20 µM throughout.

As for `COc1cc(-n2cc(-c3ccc4nc(C)[nH]c(=O)c4c3)nn2)cc(OC)c1OC`, the 50% inhibitory concentration (IC50) in the data set on HCT-116 [4] and with A549 was more than 20 µM each time.

For the compound `COc1cccc(-n2cc(-c3ccc4nc(N)nc(N)c4c3)nn2)c1`, the half-inhibitory concentration (IC50) with HCT-116 [4] was 2.75 µM; in the data set on A549, 3.27 µM.

As to `Nc1nc(N)c2cc(-c3cn(-c4ccc([N+](=O)[O-])cc4)nn3)ccc2n1`, the concentration for half-maximal inhibition (IC50) with HCT-116 [4] was determined as 9.86 µM; with A549, 7.83 µM.

In the case of `CCN(CC)CCCC(C)Nc1ccnc2cc(Cl)ccc12` (stereo not drawn), the outcome in the data set with HCT-116 [6] and in the data set on HCT-116 [7] was Active.

For `Nc1nc(N)c2cc(-c3cn(-c4ccc(F)cc4F)nn3)ccc2n1`, the IC50 in the data set on HCT-116 [4] was 3.29 µM; in the data set on A549 it was 3.74 µM.

As for `COc1ccc(-n2cc(-c3ccc4nc(N)nc(N)c4c3)nn2)c(OC)c1`, the IC50 in the data set on HCT-116 [4] was 5.35 µM; in the data set with A549, more than 20 µM.

As for `COc1cc(-n2cc(-c3ccc4nc(N)nc(NCCCCCCNC(=O)CCCC[C@@H]5SC[C@@H]6NC(=O)N[C@@H]65)c4c3)nn2)cc(OC)c1OC`, the outcome (with Bacteria [8]; in data set [10]; on Sequestosome-1; in the data set with Bacteria [11]) was Active. In data set [9], the Kd was 6.82 µM.

Regarding `Nc1nc(N)c2cc(-n3cc(-c4ccccc4)nn3)ccc2n1`, the 50% inhibitory concentration (IC50) came out at 5.46 µM in the data set with HCT-116 [4] and 6.65 µM in the data set with A549.

On to `COc1ccc(-n2cc(-c3ccc4nc(N)nc(N)c4c3)nn2)cc1`, for which the half-inhibitory concentration (IC50) was 2.44 µM with HCT-116 [4] and more than 20 µM with A549.

For `COc1cc(OC)cc(-n2cc(-c3ccc4nc(N)nc(N)c4c3)nn2)c1`, the IC50 turned out to be 1.34 µM with HCT-116 [4] and 4.74 µM with A549.

With `COc1ccc(-n2cc(-c3ccc4nc(N)nc(N)c4c3)nn2)c([N+](=O)[O-])c1`, the results for the IC50 in the data set on HCT-116 [4] and in the data set on A549 were 8.04 µM and 8.4 µM, respectively.

Regarding `COc1cc(-n2cc(-c3ccc4nc(N)[nH]c(=O)c4c3)nn2)cc(OC)c1OC`, the IC50 with HCT-116 [4] and in the data set with A549 was more than 20 µM in each case.

As for `Cc1ccc(-n2cc(-c3ccc4nc(N)nc(N)c4c3)nn2)cc1`, the IC50 worked out at 2.46 µM in the data set with HCT-116 [4] and 1.78 µM in the data set with A549.

In the case of `Nc1nc(N)c2cc(-c3cn(-c4ccc(Cl)cc4)nn3)ccc2n1`, the half-maximal inhibitory concentration (IC50) with HCT-116 [4] worked out at 2.15 µM; with A549, 7.61 µM.

For the compound `Nc1nc(N)c2cc(-c3cn(-c4ccc(F)cc4)nn3)ccc2n1`, the IC50 with HCT-116 [4] is 2.89 µM; with A549 it was 8.7 µM.

On to `Nc1nc(N)c2cc(-c3cn(-c4ccccc4)nn3)ccc2n1`, for which the IC50 was determined as 1.93 µM in the data set with HCT-116 [4] and 2.18 µM with A549.

Regarding `N#Cc1ccc(-n2cc(-c3ccc4nc(N)nc(N)c4c3)nn2)cc1`, the concentration for half-maximal inhibition (IC50) with HCT-116 [4] and with A549 was more than 20 µM each time.

`CC[C@@]1(O)C(=O)OCc2c1cc1n(c2=O)Cc2cc3ccccc3nc2-1`: in the data set on HCT-116 [12], the result was Active.

As to `Nc1nc(N)c2cc(-c3cn(-c4ccc(Br)cc4)nn3)ccc2n1`, the results for the IC50 with HCT-116 [4] and with A549 were 1.69 µM and 2.14 µM, respectively.

For `COc1ccc(-n2cc(-c3ccc4nc(N)nc(N)c4c3)nn2)cc1O`, the IC50 with HCT-116 [4] and with A549 was more than 20 µM in each case.

As to `O=c1[nH]cc(F)c(=O)[nH]1` [FLUOROURACIL], the IC50 in the data set on MCF7 was more than 20 µM; in the data set on U2OS, more than 20 µM; in the data set on A-375, 3.52 µM; in the data set with MGC-803, 7.54 µM; in the data set with MDA-MB-231, 10.2 µM; with HCT-116 [4], 4.89 µM. In addition, the IC50 in the data set on A549 is 4.52 µM; with HeLa, more than 20 µM. Further, in [5], the IC50 at 72 h is more than 20 µM. Besides, the Activity in the data set on HCT-116 [13] is on record as 11.89%; in the data set on HCT-116 [14], 34.65%; with HCT-116 [15] it was 65.12%.

Take `COc1cc(-c2cn(-c3ccc4nc(N)nc(N)c4c3)nn2)cc(OC)c1OC`: the concentration for half-maximal inhibition (IC50) worked out at 0.87 µM with HCT-116 [4] and 1.88 µM in the data set on A549.

These data come from ChEMBL document CHEMBL5096229, “A 1,2,3-Triazole Derivative of Quinazoline Exhibits Antitumor Activity by Tethering RNF168 to SQSTM1/P62” (J Med Chem, 2022).
